Inhibition and IC50 data for 17 molecules are collected here from patent publication EP0628551A1, “Semicyclic urea derivatives as antihistaminic agents” (SHIONOGI & CO., LTD., priority 1993, dated 1994).

Structures are written as SMILES. Values after ≈ are worked out from the molar mass of the structure shown.

One test deals with T1, H₁ receptor (Mus musculus, UniProt P70174).
T1 construct: A cerebral cortex of a mouse orally administered with Compound I of the present invention is homogenized to prepare a receptor sample; from tissue; host or cells: mouse (Slc-ddY, male) cerebral cortex homogenate after oral dosing
Description: H1 receptor binding inhibition test ex vivo (migration to the brain, [3H]-pyrilamine binding to cerebral cortex after oral dosing). The format is in vivo. The note with it: Slc-ddY male mice, 10 mg/kg orally, cerebral cortex removed 60 minutes after administration, [³H]-pyrilamine 4 nM, lower inhibition = lower migration to brain, read-out: [³H]-labeled pyrilamine binding inhibition ex vivo. The protocol: The receptor sample is incubated with [³H]-pyrilamine.
Five Slc-ddY male mice were used as one group. First, 10 mg/kg of the compound of the present invention was orally administered to each mouse. The mouse were killed by decapitation 60 minutes after the administration and each cerebral cortex was removed. Each cerebral cortex was frozen on dry ice and kept in a refrigerator at -80°C. Before the experiment, each cerebral cortex was homogenized with about 10 times its volume of 50 mM of Na/K phosphate buffer (pH 7.5). A mixture of each cerebral cortex was further diluted 6 times and used as a receptor sample. A mixture of each receptor sample and [³H]-pyrilamine (4 nM) was incubated at 25°C for 30 minutes. The reaction was stopped by dilution and filtration. The radioactivity of [³H]-pyrilamine bound to the receptor sample on the filter paper was measured by a liquid scintillation counter. The specific binding of [³H]-pyrilamine to the receptor sample was obtained by subtracting the non-specific binding from the total bindings. The non-specific binding was obtained under the conditions of containing 10 µM of non-radioactive pyrilamine. The amount of protein was measured by DC protein assay (Biolad), and the inhibition of the compound of the present invention to the specific binding of [³H]-pyrilamine per 1 mg of protein was measured. […]

The subject of another test is ileum of a guinea pig. Nature of the test: Evaluation of antihistaminic effects in vitro (inhibition of histamine-induced contraction of isolated ileum, Magnus method). The following applies: Cavia porcellus; guinea pig ileum in saline solution at 37°C; histamine diphosphate 0.5 µg/ml; subject compound 0.03 to 10 µg/ml; 50% inhibition of submaximal contraction; read-out: Antihistaminic effect IC50. The test is classed as cell-based. The method, then:
The effects of Compound I of the present invention and salts thereof as an antiallergic agents can be evaluated by various methods for measuring antiallergic activity, for example by conducting the following tests (1) and (2). • (1) Antihistaminic effect evaluation test in vitro Histamine diphosphate and Compound I of the present invention or salts thereof are added to an ileum of a guinea pig in a saline solution. The concentration (at which the contraction of the ileum by histamine is inhibited by 50%) of Compound I of the present invention is measured. • (2) Histamine₁ receptor (H₁ receptor) in vitro binding inhibition test As a standard material which binds to a H₁ receptor, pyrilamine is used. Compound I of the present invention is added with varying concentrations to a mixture containing a receptor sample prepared by homogenizing a cerebral cortex of a rat and [³H]-pyrilamine, and incubated. From radioactivity of [³H]-pyrilamine which is bound to the receptor sample, the concentration (IC₅₀) of Compound I inhibiting the specific binding of [³H]-pyrilamine to the receptor sample is measured to obtain an inhibition constant (Ki). Compound I of the present invention has a lower degree of migration to brain. Thus, Compound I has less side effects on the central nervous system such as sleepiness, because of its less frequent binding to the H₁ recepter in brain. The extent of migration of Compound I or salts thereof to the brain can be obtained by the following test method 3. • (3) H₁ receptor binding inhibition test ex vivo A cerebral cortex of a mouse orally administered with Compound I of the present invention is homogenized to prepare a receptor sample. The receptor sample is incubated with [³H]-pyrilamine. From the radioactivity of [³H]-pyrilamine bound to the receptor sample, the inhibition of Compound I with respect to the specific biding of pyrilamine to the receptor sample is obtained.
The following experiments were conducted in accordance with the method of R. Magnus (Arch. F.D. Ges. Physiol., 102: 123-151, 1904). Ileums derived from guinea pigs were respectively soaked in a saline solution at 37°C. Then, histamine diphosphate and a subject compound which had been obtained in the Examples shown in Table 1 were added to each saline solution so that the concentrations of histamine diphosphate and the subject compound are 0.5 µg/ml and 0.03 to 10 µg/ml, respectively. The ileum generally contracts by histamine; however, in the case where the subject compound is present, the antagonistic effect of the subject compound on histamine inhibits the contraction of the ileum. The contraction degree of the ileum was measured at each concentration of the added subject compound, and the concentration IC₅₀ of the subject compound which inhibited 50% submaximal contraction of the ileum by histamine was obtained. The submaximal contraction was obtained in the case where the subject compound was not added. […] When the value of IC₅₀ is lower, the subject cmpound has stronger antihistaminic effects.

T1 sequence (P70174 whole entry): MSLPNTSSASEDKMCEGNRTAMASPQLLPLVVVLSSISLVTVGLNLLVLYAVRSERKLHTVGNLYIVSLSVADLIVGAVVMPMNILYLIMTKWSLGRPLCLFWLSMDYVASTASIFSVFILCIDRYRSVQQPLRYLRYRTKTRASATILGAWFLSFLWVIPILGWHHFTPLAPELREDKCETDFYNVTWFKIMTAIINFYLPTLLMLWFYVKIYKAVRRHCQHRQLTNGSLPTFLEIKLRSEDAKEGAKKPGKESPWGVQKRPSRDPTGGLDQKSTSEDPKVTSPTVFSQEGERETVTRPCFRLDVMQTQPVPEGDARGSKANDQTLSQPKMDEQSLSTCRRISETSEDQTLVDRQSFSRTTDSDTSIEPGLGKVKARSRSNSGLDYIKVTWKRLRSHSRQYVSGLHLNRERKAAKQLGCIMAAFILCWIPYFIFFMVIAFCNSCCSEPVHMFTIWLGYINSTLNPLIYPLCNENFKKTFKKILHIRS

For `O=C(NCCN1CCC(=C(c2ccccc2)c2ccccc2)CC1)N1CCN(c2ccccn2)CC1` [Example 53], the inhibition at 10 mg/kg at H₁ receptor is 0%. Moreover, in the test with ileum of a guinea pig, the half-inhibitory concentration (IC50) turned out to be 1.76 µg/mL (≈ 3.66 µM).
For `CC(C)(C)c1ccc(C(O)CCCN2CCC(C(O)(c3ccccc3)c3ccccc3)CC2)cc1` (stereo not drawn) [Terfenadine, reference compound], the IC50 in the test on ileum of a guinea pig turned out to be 22.4 µg/mL (≈ 47.4 µM).
Turning to `CC(C)(C)OC(=O)N1CCN(C(=O)NCCCN2CCC(OC(c3ccccc3)c3ccccc3)CC2)CC1` [Example 70], the inhibition at 10 mg/kg at H₁ receptor was found to be 2%. In addition, in the test on ileum of a guinea pig, the IC50 amounted to 0.0889 µg/mL (≈ 0.166 µM).
Take `O=C1CCCN1C(=O)NCCCCCN1CCN(C(c2ccccc2)c2ccccc2)CC1` [Example 79]: the inhibition at 10 mg/kg at H₁ receptor amounted to 5%. In the test with ileum of a guinea pig, the half-inhibitory concentration (IC50) was 0.042 µg/mL (≈ 0.0936 µM).
For the molecule `O=C(NCCN1CCN(C(c2ccccc2)c2ccccc2)CC1)N1CCN(c2ccccn2)CC1` [Example 39], the inhibition at 10 mg/kg on H₁ receptor was 4%. Moreover, in the test on ileum of a guinea pig, the IC50 is 0.119 µg/mL (≈ 0.246 µM).
As to `O=C(NCCCN1CCC(OC(c2ccc(F)cc2)c2ccc(F)cc2)CC1)N1CCN(c2ccccn2)CC1` [Example 50], the inhibition at 10 mg/kg at H₁ receptor was determined as 2%. For the same molecule, the IC50 in the test on ileum of a guinea pig was 0.0817 µg/mL (≈ 0.149 µM).
With `CCOC(=O)N1CCN(C(=O)NCCCN2CCC(OC(c3ccc(F)cc3)c3ccc(F)cc3)CC2)CC1` [Example 51], at H₁ receptor, the inhibition at 10 mg/kg is 0%. The IC50 in the test on ileum of a guinea pig is 0.427 µg/mL (≈ 0.784 µM).
Turning to `O=C(NCCCN1CCN(C(c2ccc(F)cc2)c2ccc(F)cc2)CC1)N1CCN(c2ccccn2)CC1` [Example 43], at H₁ receptor, the inhibition at 10 mg/kg came to 14%. Besides, the concentration for half-maximal inhibition (IC50) in the test with ileum of a guinea pig came to 0.216 µg/mL (≈ 0.404 µM).
For `O=C1CSCCN1C(=O)NCCCN1CCC(OC(c2ccc(F)cc2)c2ccc(F)cc2)CC1` [Example 49], the inhibition at 10 mg/kg on H₁ receptor turned out to be 9%. Also, the IC50 with ileum of a guinea pig was found to be 0.0244 µg/mL (≈ 0.0484 µM).
`O=C(NCCCN1CCC(=C(c2ccccc2)c2ccccc2)CC1)N1CCN(c2ncccn2)CC1` [Example 5]: the inhibition at 10 mg/kg at H₁ receptor stood at 0%. Moreover, in the test with ileum of a guinea pig, the half-maximal inhibitory concentration (IC50) was 0.442 µg/mL (≈ 0.89 µM).
As to `CC(C)(C)OC(=O)N1CCN(C(=O)NCCCN2CCC(=C(c3ccccc3)c3ccccc3)CC2)CC1` [Example 71], the inhibition at 10 mg/kg at H₁ receptor stood at 7%. The concentration for half-maximal inhibition (IC50) with ileum of a guinea pig is 1.12 µg/mL (≈ 2.16 µM).
Consider `O=C(NCCCN1CCC(OC(c2ccccc2)c2ccccc2)CC1)N1CCN(S(=O)(=O)c2cccnc2)CC1` [Example 61], for which the inhibition at 10 mg/kg at H₁ receptor is 6%. Moreover, in the test on ileum of a guinea pig, the IC50 came out at 0.196 µg/mL (≈ 0.339 µM).
On the same counts, the results for `O=C(NCCCN1CCC(OC(c2ccccc2)c2ccccc2)CC1)N1CCN(c2ncccn2)CC1` [Example 15] are 6% and 0.0595 µg/mL (≈ 0.116 µM).
Consider `O=C(NCCCN1CCC(OC(c2ccccc2)c2ccccc2)CC1)N1CCN(C(c2ccccc2)c2ccccc2)CC1` [Example 45], for which, on H₁ receptor, the inhibition at 10 mg/kg amounted to 6%. For the same molecule, the 50% inhibitory concentration (IC50) in the test on ileum of a guinea pig came out at 0.621 µg/mL (≈ 1.03 µM).
For the molecule `O=C(NCCCN1CCC(OC(c2ccccc2)c2ccccc2)CC1)N1CCN(S(=O)(=O)c2cccc3cccnc23)CC1` [Example 55], the inhibition at 10 mg/kg on H₁ receptor came out at 0%. Also, in the test on ileum of a guinea pig, the half-maximal inhibitory concentration (IC50) was 1.14 µg/mL (≈ 1.82 µM).
In the case of `O=c1[nH]c2ccccc2n1CCCN1CCN(C(c2ccccc2)c2ccccc2)CC1` [Oxatoamide, reference compound], the inhibition at 10 mg/kg at H₁ receptor was 17%. In addition, the IC50 with ileum of a guinea pig worked out at 1 µg/mL (≈ 2.34 µM).
For the molecule `O=C(NCCCN1CCC(=C(c2ccccc2)c2ccccc2)CC1)N1CCN(S(=O)(=O)c2cccc3cccnc23)CC1` [Example 56], the inhibition at 10 mg/kg at H₁ receptor is 0%. Moreover, the IC50 with ileum of a guinea pig was 1.38 µg/mL (≈ 2.26 µM).

By inhibition is commonly meant the drop in the measured response relative to a control, in per cent. By IC50 is commonly meant the midpoint of a concentration-inhibition curve.
